The supplement of paper PMC10307832

What was measured:
Assay in all cases: relative viability (nuclei count vs DMSO), 5 days (fraction); higher = more cells survive
Salubrinal + Luminespib = compound: O=C(/C=C/c1ccccc1)NC(NC(=S)Nc1cccc2cccnc12)C(Cl)(Cl)Cl [Salubrinal] + CCNC(=O)c1noc(-c2cc(C(C)C)c(O)cc2O)c1-c1ccc(CN2CCOCC2)cc1 [Luminespib] (partner 0.01 µM)
Procedure, shortened: (§1)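 The day after seeding in 1536-well plates, lung cancer cell lines were treated by pin tool with a single drug, or with a fixed anchor-drug dose together with five library-drug doses (not always all listed) in √10 steps. After 5 days, a combined fix-and-stain solution (final 0.05% Triton X-100, 1% formaldehyde, 1 ug/ml Hoechst) was added. Nuclei counted on 4× images gave relative viability as treated counts over vehicle counts, reported as the median of duplicate plates.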

[1] = compound: Cc1ccc2nc(NCCN)c3ncc(C)n3c2c1 + N=C(N)NC(=N)NCCc1ccccc1 [Phenformin] (partner 250 µM)
Procedure, shortened: as §1

[2] = compound: Cc1ccc2nc(NCCN)c3ncc(C)n3c2c1 + C[C@]1(O)C[C@@H](c2nc(-c3ccc4ccc(-c5ccccc5)nc4c3)c3c(N)nccn32)C1 [Linsitinib] (partner 1 µM)
Procedure, shortened: as §1

[3] = compound: Cc1ccc2nc(NCCN)c3ncc(C)n3c2c1 + COc1cccc2cc(-c3nc([C@H]4CC[C@H](C(=O)O)CC4)n4ncnc(N)c34)[nH]c12 [OSI-027] (partner 0.5 µM)
Procedure, shortened: as §1

Cell Line | relative viability (Salubrinal + Luminespib; first compound 0.08 µM) | relative viability (Salubrinal + Luminespib; first compound 0.253 µM) | relative viability (Salubrinal + Luminespib; first compound 0.8 µM) | relative viability (Salubrinal + Luminespib; first compound 2.53 µM) | relative viability (Salubrinal + Luminespib; first compound 8 µM) | relative viability ([1]; first compound 0.04 µM) | relative viability ([1]; first compound 0.1265 µM) | relative viability ([1]; first compound 0.4 µM) | relative viability ([1]; first compound 1.265 µM) | relative viability ([1]; first compound 4 µM) | relative viability ([2]; first compound 0.04 µM) | relative viability ([2]; first compound 0.1265 µM) | relative viability ([2]; first compound 0.4 µM) | relative viability ([2]; first compound 1.265 µM) | relative viability ([2]; first compound 4 µM) | relative viability ([3]; first compound 0.04 µM) | relative viability ([3]; first compound 0.1265 µM) | relative viability ([3]; first compound 0.4 µM) | relative viability ([3]; first compound 1.265 µM) | relative viability ([3]; first compound 4 µM)
NCI-H1437 | 1.21 | 0.999 | 1.19 | 1.08 | 1.12 | 0.289 | 0.298 | 0.327 | 0.298 | 0.278 | 0.991 | 0.932 | 1.03 | 0.936 | 0.821 | 1 | 0.871 | 0.886 | 0.879 | 0.884
COR-L23 | 0.933 | 0.612 | 0.587 | 0.773 | 0.728 | 0.464 | 0.448 | 0.45 | 0.468 | 0.37 | 0.993 | 0.773 | 0.873 | 0.988 | 0.816 | 0.911 | 0.764 | 0.777 | 0.729 | 0.61
ABC-1 | 0.559 |  | 0.8 | 0.473 | 0.728 | 0.236 | 0.27 | 0.297 | 0.248 | 0.226 | 0.95 | 0.806 | 0.812 | 0.818 | 0.594 | 0.595 | 0.559 | 0.564 | 0.439 | 0.484
SK-MES-1 | 0.86 | 0.932 | 0.861 | 0.613 | 0.364 | 0.688 | 0.624 | 0.69 | 0.65 | 0.605 | 1.08 | 0.993 | 1.09 | 1.05 | 1.03 | 0.66 | 0.659 | 0.59 | 0.668 | 0.632
NCI-H838 | 0.264 | 0.258 | 0.285 | 0.341 | 0.272 | 0.655 | 0.602 | 0.587 | 0.543 | 0.568 | 1.01 | 0.956 | 0.964 | 0.995 | 0.97 | 0.462 | 0.397 | 0.445 | 0.385 | 0.398
SW 900 | 0.173 |  | 0.175 | 0.189 | 0.207 | 0.594 | 0.6 |  | 0.674 | 0.849 |  |  |  |  |  | 0.453 | 0.661 |  | 0.465 | 0.553
A549 |  |  |  |  |  | 0.209 | 0.199 | 0.166 | 0.111 | 0.118 | 0.791 | 0.557 | 0.598 | 0.423 | 0.534 |  |  |  |  | 
A-427 | 1.04 | 0.696 | 1.07 | 0.8 | 1.2 | 0.388 | 0.308 | 0.35 | 0.265 | 0.296 | 0.922 | 1.01 | 1.08 | 1.09 | 1.19 | 0.499 | 0.408 | 0.488 | 0.49 | 0.451
NCI-H1792 | 0.574 |  | 0.472 | 0.624 | 0.587 | 0.308 | 0.436 |  | 0.411 | 0.358 | 0.627 | 0.543 | 0.484 | 0.463 | 0.405 | 0.683 | 0.756 | 0.707 | 0.704 | 0.638
LCLC-97TM1 | 0.894 | 0.798 | 0.823 | 0.849 | 0.842 | 0.38 | 0.427 | 0.435 | 0.465 | 0.435 | 0.204 | 0.166 | 0.185 | 0.19 | 0.201 | 0.592 | 0.463 | 0.452 | 0.828 | 0.437
NCI-H1703 |  |  |  |  |  |  |  |  |  |  | 1.43 | 0.74 | 0.72 | 1.23 | 0.715 |  |  |  |  | 
LCLC-103H | 1.11 | 0.82 | 1.02 | 1.04 | 0.916 | 0.342 | 0.349 | 0.332 | 0.365 | 0.348 | 1.06 | 1.06 | 1.06 | 1.14 | 1.16 | 0.551 | 0.492 | 0.464 | 0.494 | 0.421
PC-3 [JPC-3] | 0.747 | 0.511 | 0.671 | 0.736 | 0.571 | 0.503 | 0.475 | 0.459 | 0.497 | 0.423 | 0.962 | 0.941 | 0.924 | 0.948 | 0.947 | 0.776 | 0.83 | 0.734 | 0.822 | 0.767
ChaGo-K-1 | 0.633 | 0.581 | 0.604 | 0.437 | 0.588 | 0.534 | 0.544 | 0.485 | 0.412 | 0.435 |  |  |  |  |  | 0.601 | 0.586 | 0.601 | 0.475 | 0.419
Calu-6 |  |  |  |  |  |  |  |  |  |  | 0.872 | 0.895 | 0.966 | 0.982 | 0.983 |  |  |  |  | 
HCC-366 |  |  |  |  |  | 0.588 | 0.609 | 0.638 | 0.606 | 0.537 | 0.622 | 0.612 | 0.642 | 0.78 | 0.49 | 1.11 | 1.05 | 0.677 | 0.892 | 0.899
NCI-H1648 |  |  |  |  |  |  |  |  |  |  |  |  |  |  |  | 0.242 |  | 0.249 |  | 0.233
EBC-1 |  |  |  |  |  |  |  |  |  |  | 1.08 | 1.13 | 0.874 | 0.866 | 0.793 |  |  |  |  | 
NCI-H1299 |  |  |  |  |  |  |  |  |  |  | 1.01 | 0.925 | 0.962 | 0.979 | 0.924 |  |  |  |  | 
NCI-H522 | 1.13 | 0.97 | 1.13 | 1.12 | 1.11 | 0.695 | 0.708 | 0.622 | 0.689 | 0.543 |  |  |  |  |  | 0.622 | 0.802 | 0.649 | 0.657 | 0.613
IA-LM |  |  |  |  |  |  |  |  |  |  | 0.825 | 0.559 | 0.542 | 0.658 | 0.495 |  |  |  |  | 
NCI-H2170 | 0.854 | 0.686 | 0.642 | 0.643 | 0.714 | 0.402 | 0.408 | 0.435 | 0.424 | 0.446 |  |  |  |  |  | 0.737 | 0.737 | 0.657 | 0.715 | 0.701
NCI-H1623 | 0.465 | 0.648 | 0.541 | 0.435 | 0.441 | 0.586 | 0.618 | 0.657 | 0.684 | 0.567 |  |  |  |  |  | 0.418 | 0.444 | 0.451 | 0.39 | 0.425
